From paper PMC7617869, “Molecular glues that inhibit deubiquitylase activity and inflammatory signaling” (Nature Structural & Molecular Biology, 2025)
Where “and” joins values, the source holds several entries; their conditions need not be identical. Identical values can stand only once.

Key:
[1] = tested on: IFNAR1 surface levels in THP-1 cells; assay: THP-1 IFNAR1 surface levels (FACS); format: cell-based, human
Method: (§1) THP-1 in vitro experiments
(§2) THP-1-DualTM cells (InvivoGen), derived from a human monocytic cell line, isolated from a patient with acute monocytic leukaemia, were cultured as per manufacturer’s guidance. Cells were seeded at 1x10^6 cells/mL in RPMI1640 media containing 10% fetal bovine serum (FBS), 1% penicillin-streptomycin (PS) (Gibco Laboratories) with DMSO (0.1%) (control) or in media containing JMS-175- […]
(§3) ng/mL) (Merck Life Science), ODN 2216 (1 µM) (Miltenyi Biotec), or Poly:IC (1 µg/mL) (InvivoGen).
(§4) Tofacitinib (Cambridge Biosciences) at 0.4 µM was used for comparison against a known JAK inhibitor.
(§5) Cells were centrifuged at 300 g for 5 minutes. Supernatant was removed and subjected to simultaneous study of the NF -κB pathway, by monitoring the activity of secreted alkaline phosphatase reporter (SEAP), and the IRF pathway, by assessing the activity o f a secreted Lucia luciferase using QUANTI - Blue ™ Solution and QUANTI -Luc™ 4 Lucia/Gaussia (InvivoGen), respectively, as per manufacturer’s instructions. Pelleted cells were used for FACS analysis using IFNα/β R1 APC-conjugated antibody or isotype control (Biotechne, FAB245A and IC002A), or unstained staining procedure with and without Zombie GreenTM (Biolegend). Samples were analysed using CytoFlex LX (Beckman) (50,000 live cells per condition). Median fluorescence intensity for APC channel gated on single cell live cells was analysed and compared as a percentage to control (no stimulation condition). […]

[2] = target: T1, ARISC (Homo sapiens, UniProt P46736+Q6UWZ7+Q9NXR7); assay: ARISC IQF DUB activity assay; format: biochemical; conditions: Fig. 1g, ARISC
T1 construct: full-length BRISC (FL), ARISC (FL); made in house; host or cells: Spodoptera frugiperda (Sf9) insect cells, MultiBac
Method: (§6) IQF assays were performed in DUB reaction buffer containing 50 mM HEPES–NaOH pH 7.0, 100 mM NaCl, 0.1 mg ml^−1 BSA, 1 mM DTT and 0.03% v/v Brij-35. […] The final concentration of BRISC WT, all BRISC mutants, HsBRISCΔLoop, MmBRISC and DrBRISCΔNΔC was 1 nM. Other enzymes were tested at the following concentrations: 5 nM ARISC (FL), 10 nM CfBRISCΔNΔC, 250 nM AMSH* (ref. [43]), 500 nM USP2 and 1 μM trypsin (Sigma, 9002-07-7). For Michaelis–Menten experiments, 1 nM BRISC with 0–1 μM IQF K63-linked diubiquitin substrate was used. Michaelis–Menten analyses and Lineweaver–Burk plots were calculated using GraphPad Prism (version 9.0).
(§7) To assess enzymatic activity, BRISC complexes were diluted to concentrations between 1 nM and 50 nM. […] Then, 20-μl enzyme reactions were carried out in 384-well black flat-bottom low-flange plates (Corning, 35373). DUB activity was measured using IQF K63-linked diubiquitin (LifeSensors, DU6303) at 50 nM. Cleaved diubiquitin was monitored by measuring fluorescence intensity (excitation, 544 nm; emission, 575 nm; dichroic mirror, 560 nm). Fluorescence intensity was measured every minute for 30 min at 30 °C. Fluorescence intensity units were plotted against time to generate a linear reaction progress curve, where the initial velocity (V0) corresponds to the gradient of the curve (typically achieved within 15 min). IC50 values were calculated using the GraphPad Prism (version 9.0) built-in dose–response equation for inhibitor concentration versus response (variable slope).

[3] = tested on: IFN-stimulated response elements (ISRE) in THP-1 cells; assay: THP-1 ISRE luciferase reporter, IFNα2 stimulation; format: cell-based, human; conditions: IFN + compound; replicate values
Method: as §1, §2, §3, §4, §5

[4] = tested on: ISG expression in MCF10A Cas9 cells expressing BRCC45 WT; assay: MCF10A BRCC45 WT ISG expression (RT–qPCR); format: cell-based, human; conditions: hIFNα2 75 ng/ml, 2.5 μM, 4 h
[5] = tested on: CXCL10 secretion in SSc PBMCs; assay: SSc PBMC CXCL10 ELISA, unstimulated; format: cell-based, human
Method: PBMCs in vitro experiments
Peripheral blood mononuclear cells (PBMCs) from healthy and SSc donors were separated using density gradient method (Leucosep™, Greiner Bio-One International) from EDTA anticoagulated peripheral blood; isolated cells were washed twice by PBS. PBMCs were then incubated in RPMI1640 […]
For healthy PBMCs, cells were stimulated with 20 ng/mL of IFN (+/- compounds or DMSO). For SSc PBMCs, cells were in basal conditions with no additional IFN stimulation. Cells were centrifuged at 300 g for 10 minutes. Supernatant was removed and subjected to R&D Systems DY266 Human CXCL10/IP-10 DuoSet ELISA (Biotechne) in duplicates, according to manufacturer’s guidance. Concentration of CXCL10 was determined according to a 4-parameter

[6] = tested on: AMSH* (a STAM2–AMSH fusion); assay: AMSH* IQF DUB activity assay; format: biochemical; conditions: Fig. 1g, AMSH*
Method: as §6, §7

Normalised V0 ([2]; FX-171-C 0.02 μM): 1.1225 and 0.966 and 1.021 | Normalised V0 ([2]; FX-171-C 0.0399999 μM): 1.087 and 0.9846 and 0.8911 | Normalised V0 ([2]; FX-171-C 0.0599997 μM): 1.028 and 0.9352 and 0.9674 | Normalised V0 ([2]; FX-171-C 0.0799994 μM): 1.023 and 0.9476 and 0.8942 | Normalised V0 ([2]; FX-171-C 0.119998 μM): 0.9409 and 0.9459 and 1.0338 | Normalised V0 ([2]; FX-171-C 0.199996 μM): 1.019 and 0.9437 and 0.9099 | Normalised V0 ([2]; FX-171-C 0.799936 μM): 0.9597 and 0.9609 and 1.054 | Normalised V0 ([2]; FX-171-C 1.25984 μM): 0.9789 and 0.9339 and 0.958 | Normalised V0 ([2]; FX-171-C 1.9996 μM): 1.042 and 0.9796 and 1.015 | Normalised V0 ([2]; FX-171-C 3.159 μM): 0.8585 and 0.91 and 0.9812 | Normalised V0 ([2]; FX-171-C 5.19739 μM): 0.9682 and 0.9452 and 1.064 | Normalised V0 ([2]; FX-171-C 7.99364 μM): 0.9509 and 0.8953 and 0.9841 | Normalised V0 ([2]; FX-171-C 12.7839 μM): 1.013 and 0.9875 and 0.9597 | Normalised V0 ([2]; FX-171-C 19.96 μM): 0.9552 and 0.8845 and 0.9378 | Normalised V0 ([2]; FX-171-C 31.4999 μM): 0.9912 and 0.9889 and 0.9686 | Normalised V0 ([2]; FX-171-C 50.147 μM): 0.9345 and 0.8543 and 0.967 | Normalised V0 ([2]; FX-171-C 79.7601 μM): 0.9819 and 0.9178 and 0.8968 | Normalised V0 ([2]; FX-171-C 125.99 μM): 0.9989 and 0.9716 and 0.9683 | Normalised V0 ([2]; FX-171-C 199.922 μM): 0.744 and 0.5764 and 0.798
SMILES: O=C(NC1C2CNCC21)c1nn(C(=O)c2c(Cl)cccc2Cl)cc1NC(=O)c1c(Cl)cccc1Cl (stereo not drawn) [FX-171-C]
IFNAR1 surface levels (Fig. 5h) ([1]; IFN + compound, No IFN = 100): 56.2651 and 56.964 and 56.0526 | IFNAR1 surface levels ([1]; THP-1, hIFNα2 25 ng/ml, 4 μM, 16 h): reduction in IFNAR1 surface levels | ISRE luciferase reporter signal (Fig. 5a) [3]: 3973.33 and 4177.33 and 5441.67 and 5023.67 | ISG expression (ISG15, IFIT1, IFIT2, IFITM1, CXCL10) [4]: reduced gene expression for all five ISGs | CXCL10, SSc donor PBMCs (Fig. 6d) ([5]; SSc donor ID 68): 72.6224 | CXCL10, SSc donor PBMCs (Fig. 6d) ([5]; SSc donor ID 78): 6.824 | CXCL10, SSc donor PBMCs (Fig. 6d) ([5]; SSc donor ID 79): 0 | CXCL10, SSc donor PBMCs (Fig. 6d) ([5]; SSc donor ID 142): 86.6599 | CXCL10, SSc donor PBMCs (Fig. 6d) ([5]; SSc donor ID 205): 108.154 | CXCL10, SSc donor PBMCs (Fig. 6d) ([5]; SSc donor ID 219): 48.1818 | CXCL10, SSc donor PBMCs (Fig. 6d) ([5]; SSc donor ID 244): 0 | CXCL10 secretion ([5]; basal, nonstimulated SSc PBMCs, 16 h): reduced CXCL10 secretion | Normalised V0 ([6]; FX-171-C 0.02 μM): 1.102 and 0.9959 and 1.122 | Normalised V0 ([6]; FX-171-C 0.0399999 μM): 1.076 and 0.9687 and 1.118 | Normalised V0 ([6]; FX-171-C 0.0599997 μM): 1.166 and 0.9974 and 1.026 | Normalised V0 ([6]; FX-171-C 0.0799994 μM): 1.155 and 1.046 and 1.034 | Normalised V0 ([6]; FX-171-C 0.119998 μM): 1.236 and 1.107 and 1.142 | Normalised V0 ([6]; FX-171-C 0.199996 μM): 1.177 and 1.065 and 1.2539 | Normalised V0 ([6]; FX-171-C 0.499975 μM): 0.9946 and 0.8997 and 1.162 | Normalised V0 ([6]; FX-171-C 0.799936 μM): 1.22 and 0.8896 and 1.186 | Normalised V0 ([6]; FX-171-C 1.25984 μM): 1.058 and 1.1 and 1.143 | Normalised V0 ([6]; FX-171-C 1.9996 μM): 1.14 and 1.15 and 1.191 | Normalised V0 ([6]; FX-171-C 3.159 μM): 1.081 and 1.064 and 1.2182 | Normalised V0 ([6]; FX-171-C 5.19739 μM): 0.9976 and 1.106 and 1.16 | Normalised V0 ([6]; FX-171-C 7.99364 μM): 1.138 and 1.066 and 1.161 | Normalised V0 ([6]; FX-171-C 12.7839 μM): 1.171 and 0.9747 and 1.21 | Normalised V0 ([6]; FX-171-C 19.96 μM): 0.7795 and 0.741 and 1.28 | Normalised V0 ([6]; FX-171-C 31.4999 μM): 1.112 and 1.039 and 1.002 | Normalised V0 ([6]; FX-171-C 50.147 μM): 1.1142 and 0.9322 and 1.253 | Normalised V0 ([6]; FX-171-C 79.7601 μM): 1.095 and 0.9276 and 1.158 | Normalised V0 ([6]; FX-171-C 125.99 μM): 1.097 and 0.9974 and 1.112 | Normalised V0 ([6]; FX-171-C 199.922 μM): 0.8792 and 0.8896 and 0.9452
